What was measured:
T47D = experiment: Growth inhibition, SRB assay, T47D; assay type: cell-based, human; conditions: Homo sapiens, 48 h
Description: (§1) Table 2 refers to the growth inhibitory effect of COMP, olaparib and cisplatin (CDDP) in a panel of human immortalized breast (T47D, MCF-7, MDA-MB-231, MDA-MB-468, SK-BR-3 and HCC1937), ovarian and endocervical (OCVAR, SKOV-3, […],IGROV-1 and HeLa), pancreatic (PANC-1 and MIAPACA), neuroblastoma (SHSY-5Y), lung (NCI-H460), prostate (VCaP) melanoma (A375 and SK-MEL-5) and glioblastoma (SF-208) cancer cells, immortalized normal MCF10a and HFF1 human cells, and patient-derived ovarian (PD-OVCA #1, #9, #41, #49 and #62) cancer cells. […] Data are mean±SEM (n=5).
(§2) In an embodiment, IC50 values were determined by Sulforhodamine B (SRB) or MTS [3-(4,5-dimethylthiazol-2-yl)-5-(3-carboxymethoxyphenyl)-2-(4-sulfophenyl)-2H-tetrazolium] assay in immortalized and PD-OVCA cells, respectively. Cancer cells were plated in 96-well plates and incubated for 24 hours. Cells were then exposed to serial dilutions of compounds for 48 hours. The solvent DMSO corresponding to the maximum concentration used in these assays (0.025%) was included as control. Results are the mean±S.E.M. of 3-5 independent experiments.

OVCAR-3 = experiment: Growth inhibition, SRB assay, OVCAR-3; assay type: cell-based, human; conditions: Homo sapiens, OVCAR-3, 48 h
Description: as §1, §2

SKOV-3 = experiment: Growth inhibition, SRB assay, SKOV-3; assay type: cell-based, human; conditions: Homo sapiens, SK-OV-3, 48 h
Description: as §1, §2

PANC-1 = experiment: Growth inhibition, SRB assay, PANC-1; assay type: cell-based; conditions: Homo sapiens, PANC-1, wild-type BRCA1/2, 48 hours
Description: as §1, §2

SF-208 = experiment: Growth inhibition, SRB assay, SF-208; assay type: cell-based; conditions: Homo sapiens, SF-208, wild-type BRCA1/2, 48 hours
Description: as §1, §2

A375 = experiment: Growth inhibition, SRB assay, A375; assay type: cell-based; conditions: Homo sapiens, A-375, A375, wild-type BRCA1/2, 48 hours
Description: as §1, §2

MDA-MB-231 = experiment: Growth inhibition, SRB assay, MDA-MB-231; assay type: cell-based, human; conditions: Homo sapiens, MDA-MB-231, 48 h
Description: as §1, §2

MDA-MB-468 = experiment: Growth inhibition, SRB assay, MDA-MB-468; assay type: cell-based, human; conditions: Homo sapiens, MDA-MB-468, 48 h
Description: as §1, §2

SK-BR-3 = experiment: Growth inhibition, SRB assay, SK-BR-3; assay type: cell-based, human; conditions: Homo sapiens, SK-BR-3, 48 h
Description: as §1, §2

MCF10a = experiment: Growth inhibition, SRB assay, normal MCF10a cells; assay type: cell-based, human; conditions: Homo sapiens, MCF-10A, 48 hours
Description: as §1, §2

[1] = tested on: triple-negative breast cancer and ovarian cancer cells (MDA-MB-231, IGROV-1, HCC1937); experiment: Colony-formation assay; assay type: cell-based, human; conditions: 8 days (MDA-MB-231 and IGROV-1), 16 days (HCC1937) of treatment
Description: FIG. 4 illustrates the effect of COMP on (A-B) colony formation of cancer cells after 8 days (MDA-MB-231 and IGROV-1) and 16 days (HCC1937) of treatment. In FIG. 4A, representative experiments are shown.
In an embodiment, colony-formation assay was performed.

[2] = tested on: phosphorylated (Ser139) histone H2AX (γH2AX); experiment: γH2AX expression and foci formation; assay type: cell-based, human; conditions: 12 μM, 48 hours; MDA-MB-231, HCC1937 and IGROV-1 cells
Description: (§3) FIG. 10 illustrates the effect of 12 μM COMP on (A) γH2AX expression levels and on (FIG. 10B) γH2AX and RAD51 foci formation, and BRCA1 foci formation and cellular localization after 48 hours of treatment. […] FIG. 10B are representative images generated using Fiji software (scale bar=100 μm; 400 × magnification).
In an embodiment, 12 μM of COMP increased the amount of phosphorylated (Ser139) histone H2AX (γH2AX) (FIG. 10A) and the number of γH2AX-positive foci formed in MDA-MB-231, HCC1937 and IGROV-1 cells (FIG. 10B and FIG. 10C).

BRCA1 = BRCA1 cellular localization by immunofluorescence; assay type: cell-based, human; conditions: 12 μM, 48 hours; MDA-MB-231, HCC1937 and IGROV-1 cells
Description: as §3

[3] = tested on: MDA-MB-231, HCC1937 and IGROV-1 cells; experiment: Combination with CDDP or olaparib, SRB assay; assay type: cell-based, human; conditions: single concentration of COMP with concentration range of CDDP or olaparib, 48 hours; CI<1, synergy
Description: FIG. 13 illustrates that COMP sensitizes triple-negative breast cancer and ovarian cancer cells to the effect of cisplatin (CDDP) and olaparib. Cells were treated with a concentration range of CDDP and olaparib alone and in combination with a single concentration of COMP (with no significant effect on cells growth) in MDA-MB-231 (FIG. 13A), HCC1937 (FIG. 13B) and IGROV-1 (FIG. 13C). Cell proliferation was measured by SRB assay after 48 hours of treatment; growth obtained with control (DMSO) was set as 100%. […] Combination index (CI) and dose-reduction index (DRI) for each combined treatment were calculated using CompuSyn software (CI<1, synergy; 1<CI<1.1, addictive effect; CI>1.1, antagonism); data were calculated using a mean value effect of six independent experiments.
In an embodiment, COMP sensitizes triple-negative breast cancer and ovarian cancer cells to the effect of CDDP and olaparib as shown by the enhancement of the growth inhibitory effect and promising synergistic effects between COMP and CDDP or olaparib (CI<1), with a noticeable reduction in the effective dose of chemotherapeutic agents (FIGS. 13A-C).

IC50 (T47D; BRCA1 wild-type, 48 hours (second Table 2)): 11.5 µM
IC50 (T47D; wild-type BRCA1/2, 48 hours): 11.5 ± 3 µM
IC50 (OVCAR-3; OVCAR-3, BRCA1 wild-type, 48 hours (second Table 2)): 13.9 µM
IC50 (OVCAR-3; OVCAR-3, wild-type BRCA1/2, 48 hours): 13.9 ± 1.7 µM
IC50 (SKOV-3; SKOV-3, wild-type BRCA1/2, 48 hours): 8.9 ± 2.5 µM
IC50 (SKOV-3; Skov-3, BRCA1 wild-type, 48 hours (second Table 2)): 8.9 µM
IC50 (PANC-1): 4.4 ± 0.9 µM
IC50 (A375): 15.5 ± 0.5 µM
IC50 (MDA-MB-231; MDA-MB-231, BRCA1 loss of heterozigoty, 48 hours): 5 ± 1.4 µM
IC50 (MDA-MB-231; MDA-MB-231, BRCA1 loss of heterozygosity, 48 hours (second Table 2)): 5 µM
IC50 (MDA-MB-468; MDA-MB-468, BRCA1 loss of heterozigoty, 48 hours): 4.4 ± 0.8 µM
IC50 (MDA-MB-468; MDA-MB-468, BRCA1 loss of heterozygosity, 48 hours (second Table 2)): 4.4 µM
IC50 (SK-BR-3; SK-BR-3, BRCA1 loss of heterozigoty, 48 hours): 5.7 ± 1.4 µM
IC50 (SK-BR-3; SK-BR-3, BRCA1 loss of heterozygosity, 48 hours (second Table 2)): 5.7 µM
Structure (SMILES): CC[C@H]1CN(C)C2Cc3c([nH]c4ccccc34)/C(=N/Nc3ccc(Br)cn3)C[C@@H]1[C@@H]2C(=O)OC [COMP, methyl (5R,6S,14S,E)-8-(2-(5-bromopyridin-2-yl) hydrazineylidene)-5-ethyl-3-methyl-2,3,4,5,6,7,8,9-octahydro-1H-2,6-methanoazecino [5,4-b]indole-14-carboxylate]
IC50 (SF-208): 12.5 ± 0.45 µM
IC50 (MCF10a): 29.5 µM
colony-forming ability of cancer cells [1]: significantly reduced
amount of γH2AX and number of γH2AX-positive foci [2]: increased
BRCA1 cellular localization (BRCA1): triggered the nucleocytoplasmic translocation of BRCA1
Combination index (CI) of COMP with CDDP or olaparib [3]: < 1

Reference: US20250345317A1, “New pharmaceutical compounds, methods and uses thereof” (BBIT-THERAPEUTICS, LDA., priority 2020, published 2025)
